# Target: T1, AtGTR1 (Arabidopsis thaliana, UniProt Q944G5)
# T1 construct: A library of Arabidopsis transporters available as full length cDNAs from the RIKEN bioresource center; expressed in transfected cells; host or cells: Xenopus oocytes injected with in vitro transcribed cRNA
# T1 sequence (Q944G5 31-636 limits assumed): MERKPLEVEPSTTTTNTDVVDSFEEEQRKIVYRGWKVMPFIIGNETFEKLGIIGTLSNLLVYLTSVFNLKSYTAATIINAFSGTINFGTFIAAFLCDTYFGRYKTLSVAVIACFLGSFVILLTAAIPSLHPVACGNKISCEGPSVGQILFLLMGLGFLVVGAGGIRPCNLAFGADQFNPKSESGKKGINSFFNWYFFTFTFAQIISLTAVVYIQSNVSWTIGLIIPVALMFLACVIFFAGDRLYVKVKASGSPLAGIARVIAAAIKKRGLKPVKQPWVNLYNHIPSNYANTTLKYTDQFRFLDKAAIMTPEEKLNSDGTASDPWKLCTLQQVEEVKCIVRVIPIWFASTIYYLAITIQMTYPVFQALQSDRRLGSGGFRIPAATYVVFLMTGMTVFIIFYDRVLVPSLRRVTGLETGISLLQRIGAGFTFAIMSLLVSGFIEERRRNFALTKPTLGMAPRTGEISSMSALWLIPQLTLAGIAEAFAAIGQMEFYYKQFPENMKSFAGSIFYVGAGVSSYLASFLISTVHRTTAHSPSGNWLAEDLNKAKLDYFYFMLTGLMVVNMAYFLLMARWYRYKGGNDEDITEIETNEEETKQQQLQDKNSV
# Experiment: Substrate-induced currents in voltage-clamped Xenopus oocytes expressing AtGTR1
# Type: cell-based
# Conditions: AtGTR1
structure (smiles),measurement,setting,value
"CSCCCC/C(=N/OS(=O)(=O)O)S[C@@H]1O[C@H](CO)[C@@H](O)[C@H](O)[C@H]1O [4-MTB, 4-methylthiobutyl glucosinolate]",inward current,"100 μM substrate, pH 5, voltage clamped at −50 mV",~30 nA
same,Km,"pH 5, clamped at −60 mV, Michaelis-Menten",20 ± 1.2 µM
